Here are results for 25 compounds from patent publication US10435399B2, “HDAC6 inhibitory heterocyclic compound” (TAKEDA PHARMACEUTICAL COMPANY LIMITED, priority 2017, dated 2019).

In this assay the target is T1, HDAC6 enzyme (Homo sapiens, UniProt Q9UBN7).
T1 construct: transducing full length HDAC6 gene into Sf-9 insect cells; GST; purchased SignalChem; host or cells: Sf-9 insect cells
T1 sequence (Q9UBN7 1-1215): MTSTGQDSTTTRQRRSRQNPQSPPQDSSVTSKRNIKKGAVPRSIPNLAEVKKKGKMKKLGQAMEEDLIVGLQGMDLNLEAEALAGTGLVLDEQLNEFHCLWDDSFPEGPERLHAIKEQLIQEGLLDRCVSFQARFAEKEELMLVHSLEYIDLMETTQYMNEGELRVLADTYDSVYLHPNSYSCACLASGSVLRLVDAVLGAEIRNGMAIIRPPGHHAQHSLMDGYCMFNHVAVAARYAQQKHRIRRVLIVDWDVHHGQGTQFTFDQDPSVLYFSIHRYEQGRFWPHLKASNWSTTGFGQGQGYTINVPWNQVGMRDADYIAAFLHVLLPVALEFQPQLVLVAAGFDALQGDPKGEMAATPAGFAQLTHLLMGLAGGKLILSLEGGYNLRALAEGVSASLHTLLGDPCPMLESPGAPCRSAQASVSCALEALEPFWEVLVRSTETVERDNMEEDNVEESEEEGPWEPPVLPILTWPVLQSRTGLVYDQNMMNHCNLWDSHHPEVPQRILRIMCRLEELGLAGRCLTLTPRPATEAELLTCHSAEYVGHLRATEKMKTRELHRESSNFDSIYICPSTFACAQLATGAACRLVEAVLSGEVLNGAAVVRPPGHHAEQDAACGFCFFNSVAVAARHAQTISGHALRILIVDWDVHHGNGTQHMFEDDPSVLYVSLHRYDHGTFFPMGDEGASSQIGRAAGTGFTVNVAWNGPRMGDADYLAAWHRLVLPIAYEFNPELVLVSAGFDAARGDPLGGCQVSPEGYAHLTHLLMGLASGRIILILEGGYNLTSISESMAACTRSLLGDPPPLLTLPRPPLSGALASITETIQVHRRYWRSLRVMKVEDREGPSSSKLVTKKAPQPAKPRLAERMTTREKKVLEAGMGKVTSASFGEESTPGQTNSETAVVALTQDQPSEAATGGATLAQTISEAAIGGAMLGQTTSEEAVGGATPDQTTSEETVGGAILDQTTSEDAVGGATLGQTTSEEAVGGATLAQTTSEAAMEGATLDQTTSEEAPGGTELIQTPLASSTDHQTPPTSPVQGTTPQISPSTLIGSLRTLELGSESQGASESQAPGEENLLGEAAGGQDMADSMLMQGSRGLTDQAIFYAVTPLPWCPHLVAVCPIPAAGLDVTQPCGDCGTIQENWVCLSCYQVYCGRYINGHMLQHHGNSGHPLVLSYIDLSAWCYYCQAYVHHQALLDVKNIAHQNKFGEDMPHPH
Put plainly: HDAC6 enzyme inhibitory activity (HDAC-Glo I/II Assay kit). Type of assay: biochemical. The note with it: 10 μM; wells without enzyme = 100% inhibition; read-out: HDAC6 inhibitory rate (%) (10 μM). In outline:
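Full-length human HDAC6 (GST-purified, Sf-9 expressed) preincubated with compound 60 min at room temperature in Tris-HCl pH 7.5 buffer with MgCl2, KCl, NaCl, glutathione, Tween-20. HDAC-Glo I/II substrate-developer then added, 20 min room temperature, luminescence read. Inhibition relative to no-enzyme wells as 100%.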
Consider `O=C1c2cc(-c3nnc(C(F)F)o3)cc(F)c2CN1C[C@H]1CC(F)(F)CN1S(=O)(=O)c1ccccc1` [Example 430, 6-(5-(difluoro-methyl)-1,3,4-oxadiazol-2-yl)-2-(((2R)-4,4-difluoro-1-(phenylsulfonyl)pyrrolidin-2-yl)methyl)-4-fluoroiso-indolin-1-one], for which the inhibition at 10 µM came to 101%.
On to `Cn1nc(C(F)(F)F)cc1-c1c(F)cccc1N1Cc2ccc(-c3nnc(C(F)F)o3)cc2C1=O` [Example 431, 6-(5-(difluoro-methyl)-1,3,4-oxadiazol-2-yl)-2-(3-fluoro-2-(1-methyl-3-(trifluoro-methyl)-1H-pyrazol-5-yl)phenyl)iso-indolin-1-one], for which the inhibition at 10 µM worked out at 100%.
The same measure for `O=C1c2cc(-c3nnc(C(F)F)o3)cnc2CN1Cc1cccc(OC(F)(F)F)c1` [Example 432, 3-(5-(difluoro-methyl)-1,3,4-oxadiazol-2-yl)-6-(3-(trifluoro-methoxy)benzyl)-6,7-dihydro-5H-pyrrolo[3,4-b] pyridin-5-one]: 94%; for `O=C1c2cc(-c3nnc(C(F)F)o3)ccc2CN1C1(Cc2ccccc2)CCOCC1` [Example 433, 2-(4-benzyl-tetrahydro-2H-pyran-4-yl)-6-(5-(difluoro-methyl)-1,3,4-oxadiazol-2-yl) isoindolin-1-one]: 101%.
In the case of `Cn1cc(-c2cn(C)nc2N2Cc3ccc(-c4nnc(C(F)F)o4)cc3C2=O)cn1` [Example 434, 6-(5-(difluoro-methyl)-1,3,4-oxadiazol-2-yl)-2-(1,1′-dimethyl-1H,1′H-4,4′-bipyrazol-3-yl) isoindolin-1-one], the inhibition at 10 µM stood at 98%.
`O=C1c2cc(-c3nnc(C(F)F)o3)ccc2CN1c1ccnn1-c1ccccc1` [Example 435, 6-(5-(difluoro-methyl)-1,3,4-oxadiazol-2-yl)-2-(1-phenyl-1H-pyrazol-5-yl)isoindolin-1-one]: the inhibition at 10 µM turned out to be 99%.
For the compound `Cn1cc(-c2c(F)cccc2N2Cc3ccc(-c4nnc(C(F)F)o4)cc3C2=O)cn1` [Example 436, 6-(5-(difluoro-methyl)-1,3,4-oxadiazol-2-yl)-2-(3-fluoro-2-(1-methyl-1H-pyrazol-4-yl)phenyl)iso-indolin-1-one], the inhibition at 10 µM is 98%.
For `O=C1c2cc(-c3nnc(C(F)F)o3)cnc2CN1Cc1ccccc1OC(F)(F)F` [Example 437, 3-(5-(difluoro-methyl)-1,3,4-oxadiazol-2-yl)-6-(2-(trifluoro-methoxy)benzyl)-6,7-dihydro-5H-pyrrolo [3,4-b]pyridin-5-one], the inhibition at 10 µM is 101%.
For `Cn1cccc1CN1Cc2ncc(-c3nnc(C(F)F)o3)cc2C1=O` [Example 438, 3-(5-(difluoro-methyl)-1,3,4-oxadiazol-2-yl)-6-((1-methyl-1H-pyrrol-2-yl)methyl)-6,7-dihydro-5H-pyrrolo [3,4-b]pyridin-5-one], the inhibition at 10 µM is 97%.
The same measure for `O=C1CCCN1c1cc(F)ccc1N1Cc2ccc(-c3nnc(C(F)F)o3)cc2C1=O` [Example 439, 6-(5-(difluoro-methyl)-1,3,4-oxadiazol-2-yl)-2-(4-fluoro-2-(2-oxo-pyrrolidin-1-yl)phenyl) isoindolin-1-one]: 99%.
To `O=C1c2cc(-c3nnc(C(F)F)o3)cnc2CN1Cc1nccs1` [Example 440, 3-(5-(difluoro-methyl)-1,3,4-oxadiazol-2-yl)-6-(1,3-thiazol-2-ylmethyl)-6,7-dihydro-5H-pyrrolo [3,4-b]pyridin-5-one] belongs 97%.
The same measure for `O=C1c2cc(-c3nnc(C(F)F)o3)cnc2CN1Cc1ccccc1Br` [Example 441, 6-(2-bromo-benzyl)-3-(5-(difluoro-methyl)-1,3,4-oxadiazol-2-yl)-6,7-dihydro-5H-pyrrolo [3,4-b]pyridin-5-one]: 99%; for `Cn1ccc(N2Cc3ccc(-c4nnc(C(F)F)o4)cc3C2=O)n1` [Example 442, 6-(5-(difluoro-methyl)-1,3,4-oxadiazol-2-yl)-2-(1-methyl-1H-pyrazol-3-yl)isoindolin-1-one]: 94%.
For the compound `N#Cc1ccc(N2Cc3ccc(-c4nnc(C(F)F)o4)cc3C2=O)c(-c2ccccc2)c1` [Example 443, 6-(6-(5-(difluoro-methyl)-1,3,4-oxadiazol-2-yl)-1-oxo-1,3-dihydro-2H-isoindol-2-yl) biphenyl-3-carbonitrile], the inhibition at 10 µM came to 100%.
The same measure for `N#Cc1ccc(N2Cc3ccc(-c4nnc(C(F)F)o4)cc3C2=O)c(-c2cnn(C(F)F)c2)c1` [Example 444, 4-(6-(5-(difluoro-methyl)-1,3,4-oxadiazol-2-yl)-1-oxo-1,3-dihydro-2H-isoindol-2-yl)-3-(1-(difluoro-methyl)-1H-pyrazol-4-yl) benzonitrile]: 100%.
To `N#Cc1ccc(N2Cc3ccc(-c4nnc(C(F)F)o4)cc3C2=O)c(-c2cccc(F)c2)c1` [Example 445, 6-(6-(5-(difluoro-methyl)-1,3,4-oxadiazol-2-yl)-1-oxo-1,3-dihydro-2H-isoindol-2-yl)-3′-fluoro-biphenyl-3-carbonitrile] belongs 100%.
For the compound `Cn1cc(C2CCOCC2)c(N2Cc3ccc(-c4nnc(C(F)F)o4)cc3C2=O)n1` [Example 446, 6-(5-(difluoro-methyl)-1,3,4-oxadiazol-2-yl)-2-(1-methyl-4-(tetrahydro-2H-pyran-4-yl)-1H-pyrazol-3-yl) isoindolin-1-one], the inhibition at 10 µM came out at 100%.
Consider `COc1cccc(-c2cn(C)nc2N2Cc3ccc(-c4nnc(C(F)F)o4)cc3C2=O)c1` [Example 447, 6-(5-(difluoro-methyl)-1,3,4-oxadiazol-2-yl)-2-(4-(3-methoxy-phenyl)-1-methyl-1H-pyrazol-3-yl) isoindolin-1-one], for which the inhibition at 10 µM was determined as 100%.
With `Cn1cc(C2=CCOCC2)c(N2Cc3ccc(-c4nnc(C(F)F)o4)cc3C2=O)n1` [Example 448, 6-(5-(difluoro-methyl)-1,3,4-oxadiazol-2-yl)-2-(4-(3,6-dihydro-2H-pyran-4-yl)-1-methyl-1H-pyrazol-3-yl) isoindolin-1-one], the inhibition at 10 µM was 100%.
`CC(=O)N[C@@H]1CCCC[C@H]1N1Cc2ncc(-c3nnc(C(F)F)o3)cc2C1=O` [Example 449, N-((1R,2R)-2-(3-(5-(difluoro-methyl)-1,3,4-oxadiazol-2-yl)-5-oxo-5,7-dihydro-6H-pyrrolo[3,4-b]pyridin-6-yl)cyclohexyl) acetamide]: the inhibition at 10 µM is 100%.
As to `O=C1c2cc(-c3nnc(C(F)F)o3)ccc2CN1c1ccc(F)cc1-n1cc(C(F)(F)F)cn1` [Example 450, 6-(5-(difluoro-methyl)-1,3,4-oxadiazol-2-yl)-2-(4-fluoro-2-(4-(trifluoro-methyl)-1H-pyrazol-1-yl)phenyl) isoindolin-1-one], the inhibition at 10 µM was found to be 100%.
Take `O=C1c2cc(-c3nnc(C(F)F)o3)ccc2CN1c1ccc(F)cc1-n1cc(Cl)cn1` [Example 451, 2-(2-(4-chloro-1H-pyrazol-1-yl)-4-fluoro-phenyl)-6-(5-(difluoro-methyl)-1,3,4-oxadiazol-2-yl) isoindolin-1-one]: the inhibition at 10 µM stood at 98%.
Consider `O=C1c2cc(-c3nnc(C(F)F)o3)ccc2CN1c1ccc(F)cc1-n1cc(F)cn1` [Example 452, 6-(5-(difluoromethyl)-1,3,4-oxadiazol-2-yl)-2-(4-fluoro-2-(4-fluoro-1H-pyrazol-1-yl)phenyl)isoindolin-1-one], for which the inhibition at 10 µM was found to be 99%.
In the case of `O=C1c2cc(-c3nnc(C(F)F)o3)ccc2CN1c1ccnn1-c1cccc(F)c1` [Example 453, 6-(5-(difluoro-methyl)-1,3,4-oxadiazol-2-yl)-2-(1-(3-fluoro-phenyl)-1H-pyrazol-5-yl) isoindolin-1-one], the inhibition at 10 µM was 99%.
The same measure for `O=C1c2cc(-c3nnc(C(F)F)o3)cnc2CN1Cc1ccc(Cl)s1` [Example 454, 6-((5-chloro-2-thienyl)methyl)-3-(5-(difluoro-methyl)-1,3,4-oxadiazol-2-yl)-6,7-dihydro-5H-pyrrolo [3,4-b]pyridin-5-one]: 101%.
